Results: PMC12040169 (PLOS Biology, 2025)

test: in vitro; conditions: human, hela cells, % viability

SMILES | viability at 28.5 h, 10 µM [%]
Nc1nnnn1CC(=O)N/N=C/c1cc2c(cc1[N+](=O)[O-])OCO2 [CBK262187] | 117
CN(C)CCCNC(=O)COc1ccccc1 [CBK262189] | 88
O=C(CCCN1C(=O)c2cccc3cccc(c23)C1=O)NCc1cccnc1 [CBK262190] | 73.9
O=C(O)c1ccc(N2C(=O)CC(S/C(=N\c3ccccc3)Nc3ccccc3)C2=O)cc1 (stereo not shown) [CBK262191] | 107
Cc1ccc(N(CC(=O)NN=C2CCCCCCCCCCC2)S(=O)(=O)c2ccccc2)cc1 [CBK262192] | 105
CC(=O)Nc1ccc(S(=O)(=O)N2CCN(CCO)CC2)cc1 [CBK262196] | 95.1
COc1cccc(CNCc2ccccc2[N+](=O)[O-])c1OC [CBK262198] | 98
Cc1ccc(N(CC(=O)Nc2cccc3cccnc23)S(=O)(=O)c2ccc(C)cc2)cc1 [CBK262201] | 104
COc1cccc(/C=C2\SC(=S)N(CC(=O)NNC(=O)c3ccccc3O)C2=O)c1 [CBK262202] | 91.1
O=C(NCc1ccccn1)C(=O)N/N=C/c1ccccc1[N+](=O)[O-] [CBK262204] | 96.4
Cc1ccc(C)c(S(=O)(=O)NCCCn2ccnc2)c1 [CBK262205] | 109
Cc1cc(NCc2ccccc2)nc2ccccc12 [CBK262206] | 93.5
COc1ccccc1N1CCN(CCc2nnc(S)n2-c2ccccc2)CC1 [CBK262212] | 102
C[N+]1(c2ccccc2)CCC(N)=N1 (stereo not shown) [CBK262213I] | 91.8
O=C(O)CSc1nccn1Cc1ccccc1 [CBK262215] | 103
CC(Oc1cccc2ccccc12)C(=O)N/N=C/c1ccc(Cl)cc1Cl (stereo not shown) [CBK262218] | 97
CCN(CC)CCOc1c(C)cc(Cl)cc1C [CBK262219] | 97
COc1cc(/C=N/NC(=O)C(=O)Nc2ccc(C)c(C)c2)ccc1O [CBK262225] | 86
CN1CCN(C(=O)c2ccc(Cl)c(S(=O)(=O)N3CCCCC3)c2)CC1 [CBK262228] | 94.7
O=C(O)CSc1nc2ccc([N+](=O)[O-])cc2s1 [CBK262232] | 88.4
COc1ccccc1/C=C1/S/C(=N/Cc2ccccc2)N(Cc2ccccc2)C1=O [CBK262234] | 99.3

SMILES | viability at 28.5 h, 10 µM [%]
O=[N+]([O-])c1cc(C(F)(F)F)ccc1N(CCO)CCO [CBK262238] | 94.9
COc1ccc(NC(=O)c2cnccn2)c(OC)c1 [CBK262240] | 105
O=S(=O)(Cc1ccccc1)NCc1ccccn1 [CBK262241] | 96.2
COc1ccc2oc(=O)c(C(=O)Nc3ccc(C(=O)O)cc3)cc2c1 [CBK262242] | 98.4
O=[N+]([O-])c1ccc(OCCCNCCO)cc1 [CBK262244] | 92.3
CCOC(=O)c1c(/N=C/c2cc(I)cc(I)c2O)sc2c1CCN(Cc1ccccc1)C2 [CBK262246] | 106
CC(C)(C)c1cc(/C=N/Nc2nc3ccccc3[nH]2)cc(C(C)(C)C)c1O [CBK262247] | 90.2
O=C(N/N=C/c1cccc(OC(=O)c2cccc(Br)c2)c1)c1ccncc1 [CBK262249] | 112
O=C1c2cc(S(=O)(=O)NCc3ccco3)ccc2-c2ccc(S(=O)(=O)NCc3ccco3)cc21 [CBK262250] | 98.5
CNc1nc2ccccc2n1CC(=O)c1ccccc1 [CBK262251B] | 96
CO/N=C(\C(=O)O)c1cn2cccnc2n1 [CBK262252] | 91.5
COc1ccc(NC(=O)C(=O)N/N=C/c2ccc(C(=O)O)cc2)cc1 [CBK262255] | 95.5
O=C(O)CCn1ncc2ccccc21 [CBK262257] | 89.8
CC(C)(c1ccc(Oc2ccc3c(c2)C(=O)N(c2nccs2)C3=O)cc1)c1ccc(Oc2ccc3c(c2)C(=O)N(c2nccs2)C3=O)cc1 [CBK262258] | 103
CN(C)c1ccc(/C=N/NC(=O)CSc2nnc(-c3ccccc3)n2-c2ccccc2)cc1 [CBK262263] | 90.2
COc1ccc(-c2nnc(SCC(=O)NN)n2-c2ccccc2)cc1OC [CBK262264] | 112
COc1cc(/C=N/NC(N)=O)ccc1OC(=O)c1sc2ccccc2c1Cl [CBK262265] | 85
C(=N\c1nc2ccccc2n1CCN1CCOCC1)/c1ccc2c(c1)OCO2 [CBK262270] | 109
O=C(Oc1cccc(NC(=O)c2ccco2)c1)c1cccc(S(=O)(=O)N2CCOCC2)c1 [CBK262272] | 97.2
O=[N+]([O-])c1ccc(CNCCc2c[nH]c3ccccc23)cc1 [CBK262275] | 80.4
COc1ccc(C(=O)/C=C/Nc2ccc(S(=O)(=O)NC(=N)N)cc2)cc1 [CBK262277] | 84.1

SMILES | viability at 28.5 h, 10 µM [%]
O=C/C(=C\Nc1ccc(S(=O)(=O)N2CCCCC2)cc1)c1nc2ccccc2o1 [CBK262281] | 99.2
O=C(/C=C/c1cccc([N+](=O)[O-])c1)NCCN1CCOCC1 [CBK262283] | 90.5
CCc1cc2c(=O)c(-c3nc4ccccc4s3)coc2c(CN2CCCCC2)c1O [CBK262284] | 86.1
COc1cc(-c2nc3ccccn3c2/N=C/c2ccc(-c3ccc([N+](=O)[O-])cc3)o2)ccc1O [CBK262288] | 79.8
O=C(N/N=C\c1cccc(OC(=O)c2cccs2)c1)c1ccc([N+](=O)[O-])cc1 [CBK262289] | 77.3
CC(C)Cn1c(=O)c(C(=O)Nc2ccccc2S(N)(=O)=O)c(O)c2ccccc21 [CBK262290] | 93.1
O=S(=O)(NCc1ccccn1)c1ccc(Br)cc1Br [CBK262291] | 93.2
O=C(COc1cccc(Cl)c1)N/N=C\c1ccc(C(=O)O)cc1 [CBK262293] | 102
OCCNc1nc2cc(Cl)ccc2[nH]1 [CBK262295] | 101
O=C(N/N=C/c1cc(O)c(Br)cc1Br)c1ccncc1 [CBK262297] | 76.8
O=[N+]([O-])c1ccc(C2CNC(c3ccccc3O)O2)cc1 (stereo not shown) [CBK262298] | 94
O=C(c1ccoc1)N1CCN(S(=O)(=O)c2ccc3c(c2)Cc2cc(S(=O)(=O)N4CCN(C(=O)c5ccco5)CC4)ccc2-3)CC1 [CBK262299] | 113
O=C1CCCN1CP(=O)(O)CN1CCCCC1 [CBK262302] | 85.6
COc1ccccc1/C=C/C1=NN(c2ccc(F)cc2)C(c2ccccc2OC)C1 (stereo not shown) [CBK262303] | 81.1
O=C(O)c1cc(C(=O)O)c2ccccc2n1 [CBK262304] | 82.1
Cc1ccc(/N=N/c2c(O)c(C(=O)Nc3ccc4c(c3)c(=O)[nH]c3ccccc34)cc3ccccc23)c(Cl)c1 [CBK262306] | 92.7
CC(=O)OC(Cn1c2ccccc2c2ccccc21)Cn1c2ccccc2c2ccccc21 [CBK262307] | 104
O=P(O)(CN1CCCCCC1)CN1CCCCCC1 [CBK262311] | 92.1
O=P(O)(CCc1ccccn1)CN1CCCCC1 [CBK262312] | 97.2
OCCNc1nc(-c2cccnc2)nc2ccccc12 [CBK262314] | 105
O=c1c2cnn(-c3ccccc3)c2nc(Cc2ccccc2)n1-c1cccc2ccccc12 [CBK262316] | 82.1

SMILES | viability at 28.5 h, 10 µM [%]
O=P(O)(CCc1ccccc1)CN1CCCCC1 [CBK262318] | 78.6
O=C(O)CCSc1c[nH]c2ccccc12 [CBK262319] | 94.5
O=C(Nc1ccc(-c2ccc(NC(=O)c3ccncc3)cc2)cc1)c1ccncc1 [CBK262321] | 98.9
O=P(O)(CCc1ccncc1)CN1CCCCC1 [CBK262323] | 104
O=C(COC(=O)c1ccc2c(c1)C(=O)N(c1cccc(Cl)c1)C2=O)c1ccc(Br)cc1 [CBK262324] | 94
O=C(CN(c1ccccc1)S(=O)(=O)c1ccccc1[N+](=O)[O-])NC1CCCCC1 [CBK262328] | 89.3
Fc1ccc(Br)cc1SCCc1ccccn1 [CBK262330G] | 86.7
O=C(Cn1nnc(-c2ccccc2Cl)n1)N/N=C/c1cn(Cc2ccc(Cl)cc2)c2ccccc12 [CBK262333] | 107
O=[N+]([O-])c1ccc(-c2nc3ccc(Br)cn3[n+]2[O-])cc1 [CBK262335] | 96.5
CN1CCC(=NNC(=O)CN(c2ccc(Oc3ccccc3)cc2)S(C)(=O)=O)CC1 [CBK262338] | 93.2
CSc1ccc(/C=C(\C#N)c2nn(-c3ccccc3)c(N)c2C#N)cc1 [CBK262339] | 105
COc1ccc(/C=N/NC(=O)CCn2c3ccccc3c3ccccc32)cc1O [CBK262343] | 46
O=C(NCCNc1ccc([N+](=O)[O-])cc1Cl)c1ccc(F)cc1 [CBK262344] | 86.6
COc1ccc(CCN(C(C)=O)C2CC(=O)N(c3ccccc3)C2=O)cc1OC (stereo not shown) [CBK262349] | 89.5
COc1cc(/C=N/NC(=O)CCn2c3ccc(Cl)cc3c3cc(Cl)ccc32)ccc1O [CBK262351] | 112
N#C/C(=C\C=C\c1ccc([N+](=O)[O-])cc1)c1nc(-c2cc3cc([N+](=O)[O-])ccc3oc2=O)cs1 [CBK262357] | 93.7
Cc1cc(C)n(-c2cc(C)c3ccccc3n2)n1 [CBK262358] | 81.9
O=C(O)CCSCc1ccc([N+](=O)[O-])cc1 [CBK262359] | 103
O=C(CSc1nc2ccccc2s1)OCC(=O)c1cccc([N+](=O)[O-])c1 [CBK262361] | 111
CC1(C)CC(NC(=O)C(=O)NCCc2ccc(Cl)cc2)CC(C)(C)N1 [CBK262363] | 83.8
O=C(O)c1ccc(S(=O)(=O)NCC2CCCO2)cc1 (stereo not shown) [CBK262364] | 79.8

same assay, conditions: human, hela cells, % viability, bulk resorufin, single well

SMILES | viability at 28.5 h, 10 µM [%]
O=C(N/N=C1/CN2CCC1CC2)c1cccc(O)c1 [CBK262188C] | 93.5
COc1ccc(CCNCc2ccc([N+](=O)[O-])cc2)cc1OC [CBK262217] | 115
O=C1NC(=S)NC(=O)C1=NNc1ccccc1C(=O)O [CBK262231] | 99.6
COc1ccccc1CCNCc1ccc([N+](=O)[O-])cc1 [CBK262292] | 93.3
